Assay results from ChEMBL document CHEMBL3045717, “Synthesis and pharmacological properties of some novel pyrazolidine and pyrazole derivatives” (2012).

Columns and labels:
Format in all cases: functional
Settings in all cases: read-out: DIZ
Aspergillus niger [1] = experiment: Antifungal activity against Aspergillus niger at 200 ug/ml after 48 to 72 hr by agar diffusion cup-plate method
Aspergillus niger [2] = experiment: Antifungal activity against Aspergillus niger at 50 ug/ml after 48 to 72 hr by agar diffusion cup-plate method
Aspergillus niger [3] = experiment: Antifungal activity against Aspergillus niger at 100 ug/ml after 48 to 72 hr by agar diffusion cup-plate method
Candida albicans [4] = experiment: Antifungal activity against Candida albicans at 200 ug/ml after 48 to 72 hr by agar diffusion cup-plate method
Candida albicans [5] = experiment: Antifungal activity against Candida albicans at 100 ug/ml after 48 to 72 hr by agar diffusion cup-plate method
Candida albicans [6] = experiment: Antifungal activity against Candida albicans at 50 ug/ml after 48 to 72 hr by agar diffusion cup-plate method
Bacillus subtilis [7] = experiment: Antibacterial activity against Bacillus subtilis at 200 ug/ml after 24 hr by agar diffusion cup plate method
Bacillus subtilis [8] = experiment: Antibacterial activity against Bacillus subtilis at 100 ug/ml after 24 hr by agar diffusion cup plate method
Bacillus subtilis [9] = experiment: Antibacterial activity against Bacillus subtilis at 50 ug/ml after 24 hr by agar diffusion cup plate method
Staphylococcus aureus [10] = experiment: Antibacterial activity against Staphylococcus aureus at 200 ug/ml after 24 hr by agar diffusion cup-plate method
Staphylococcus aureus [11] = experiment: Antibacterial activity against Staphylococcus aureus at 100 ug/ml after 24 hr by agar diffusion cup-plate method
Staphylococcus aureus [12] = experiment: Antibacterial activity against Staphylococcus aureus at 50 ug/ml after 24 hr by agar diffusion cup-plate method
Pseudomonas aeruginosa [13] = experiment: Antibacterial activity against Pseudomonas aeruginosa at 200 ug/ml after 24 hr by agar diffusion cup-plate method
Pseudomonas aeruginosa [14] = experiment: Antibacterial activity against Pseudomonas aeruginosa at 100 ug/ml after 24 hr by agar diffusion cup-plate method
Pseudomonas aeruginosa [15] = experiment: Antibacterial activity against Pseudomonas aeruginosa at 50 ug/ml after 24 hr by agar diffusion cup-plate method
Escherichia coli [16] = experiment: Antibacterial activity against Escherichia coli at 100 ug/ml after 24 hr by agar diffusion cup-plate method
Escherichia coli [17] = experiment: Antibacterial activity against Escherichia coli at 200 ug/ml after 24 hr by agar diffusion cup-plate method
Escherichia coli [18] = experiment: Antibacterial activity against Escherichia coli at 50 ug/ml after 24 hr by agar diffusion cup-plate method

SMILES	zone of inhibition at 200 µg/mL (Aspergillus niger [1])	zone of inhibition at 50 µg/mL (Aspergillus niger [2])	zone of inhibition at 100 µg/mL (Aspergillus niger [3])	zone of inhibition at 200 µg/mL (Candida albicans [4])	zone of inhibition at 100 µg/mL (Candida albicans [5])	zone of inhibition at 50 µg/mL (Candida albicans [6])	zone of inhibition at 200 µg/mL (Bacillus subtilis [7])	zone of inhibition at 100 µg/mL (Bacillus subtilis [8])	zone of inhibition at 50 µg/mL (Bacillus subtilis [9])	zone of inhibition at 200 µg/mL (Staphylococcus aureus [10])	zone of inhibition at 100 µg/mL (Staphylococcus aureus [11])	zone of inhibition at 50 µg/mL (Staphylococcus aureus [12])	zone of inhibition at 200 µg/mL (Pseudomonas aeruginosa [13])	zone of inhibition at 100 µg/mL (Pseudomonas aeruginosa [14])	zone of inhibition at 50 µg/mL (Pseudomonas aeruginosa [15])	zone of inhibition at 100 µg/mL (Escherichia coli [16])	zone of inhibition at 200 µg/mL (Escherichia coli [17])	zone of inhibition at 50 µg/mL (Escherichia coli [18])
O=C1CC(=O)N(c2ccc([N+](=O)[O-])cc2[N+](=O)[O-])N1	14.1 mm	10.1 mm	12.2 mm	10.2 mm	10.1 mm	6.2 mm	16 mm	12 mm	10.2 mm	18.1 mm	12 mm	8.4 mm	16.1 mm	13.2 mm	12.1 mm	18.1 mm	20.2 mm	16.2 mm
CC(=O)N1C(=O)CC(=O)N1c1ccc([N+](=O)[O-])cc1[N+](=O)[O-]	24 mm	12.2 mm	16.8 mm	24.2 mm	18.2 mm	13.2 mm	25.1 mm	18.9 mm	10.2 mm	26.1 mm	22 mm	10 mm	28 mm	22.8 mm	18.2 mm	15.2 mm	30.6 mm	13.2 mm
Cc1cc(C)n(-c2ccc([N+](=O)[O-])cc2[N+](=O)[O-])n1	25 mm	10.2 mm	18.6 mm	24.5 mm	20 mm	14.3 mm	22.9 mm	18.5 mm	10.4 mm	24 mm	23 mm	14 mm	25 mm	18.6 mm	10.2 mm	23 mm	28.5 mm	14.3 mm
O=C1CC(CCl)=NN1c1ccc([N+](=O)[O-])cc1[N+](=O)[O-]	26.6 mm	14 mm	22.1 mm	26.4 mm	23 mm	14.2 mm	28 mm	20.1 mm	12.2 mm	28.1 mm	20 mm	15 mm	28.6 mm	22.1 mm	14 mm	23 mm	30.4 mm	14.2 mm
CC1=NN(c2ccc([N+](=O)[O-])cc2[N+](=O)[O-])C(=O)C1	18 mm	12.2 mm	14 mm	20.4 mm	14 mm	10 mm	12 mm	10.1 mm	10.2 mm	24.1 mm	18 mm	14.2 mm	22 mm	16 mm	12.2 mm	16 mm	20.4 mm	12 mm
NC1=NN(c2ccc([N+](=O)[O-])cc2[N+](=O)[O-])C(=O)C1	14.3 mm	8.4 mm	10.1 mm	20.8 mm	14 mm	12.3 mm	12 mm	8.1 mm	10.4 mm	26 mm	20 mm	14 mm	16.3 mm	12.1 mm	8.4 mm	16 mm	20.6 mm	12.3 mm
O=[N+]([O-])c1ccc(NNC(=S)Nc2ccccc2)c([N+](=O)[O-])c1	16.2 mm	10 mm	14.2 mm	18.4 mm	14.1 mm	11.5 mm	18.4 mm	14.1 mm	10.2 mm	18 mm	14 mm	10 mm	20.2 mm	14.2 mm	12 mm	14.1 mm	18.6 mm	10.2 mm
O=C1CS/C(=N/c2ccccc2)N1Nc1ccc([N+](=O)[O-])cc1[N+](=O)[O-]	16.6 mm	10.2 mm	14.5 mm	24.2 mm	18.4 mm	11.1 mm	26.4 mm	20.8 mm	12 mm	30.4 mm	22.2 mm	16.2 mm	12 mm	10.3 mm	10.2 mm	26.1 mm	30.1 mm	18.2 mm
Clc1ccccc1C(c1ccccc1)(c1ccccc1)n1ccnc1 [CLOTRIMAZOLE]	28.4 mm	28.4 mm	28.4 mm	28.4 mm	28.4 mm	28.4 mm												
CCn1cc(C(=O)O)c(=O)c2cc(F)c(N3CCNCC3)cc21 [NORFLOXACIN]							31.3 mm	31.3 mm	31.3 mm	30.4 mm	30.4 mm	30.4 mm	31.1 mm	31.1 mm	31.1 mm	35.4 mm	35.5 mm	35.4 mm
